Legend:
sfa1 mutant cells = experiment: Growth of GS-FDH-deficient yeast under nitrosative or oxidative stress; format: cell-based
Excerpt: Genet. 237, 351 (1993) (SFA1/YDL168w) was replaced with dominant selectable cassettes Kan 2 (resistant to G418) or hphMX (resistant to hydromycin) by direct targeting as described in Wach, A., et al., Yeast 10, 1793 (1994). KanMX2 is described in Wach, A. et al., Yeast 10, 1793 (1994). hphMX is described in Goldstein and MeCuskler, Yeast 15, 1541 (1991).

cystic fibrosis = experiment: Example II: patient with cystic fibrosis; format: in vivo, human; conditions: inhaled S-nitrosoglutathione (10 mM in 3 cc) in combination with D-glutathione (3 mM in 10 cc); over the following day
Excerpt: A person with cystic fibrosis presents to the Emergency Room with difficulty breathing and a fever.

ARDS = conditions: inhaled 10 mM in 3 cc normal saline; from 60 mm Hg on 100% oxygen; over 1 hour
Excerpt: A person develops ARDS as a complication of urosepsis. They are intubated and transferred to the Intensive Care Unit.

unstable angina = conditions: intravenous infusion 100 mg per kg Q6 hours; on betablockers and nitrates
Excerpt: A person status post CABG×2 presents with unstable angina.

blood pressure = conditions: 600 milligrams BID; three weeks later; 160/90 before
Excerpt: A person presents to their primary care physician.

liver function = conditions: infusion 200 milligrams per kilogram every 6 hours; over the following week
Excerpt: A child presents to the Emergency Room having ingested a toxic dose of Tylenol. […] This is an example of treating a patient for a disease where there is risk of apoptosis occurring.

Hodgkins disease = conditions: 1 gram three times a day for a month
Excerpt: A person has a biopsy done on an axillary node which establishes the diagnosis of Hodgkins disease.

[1] = tested on: 90% lesion of the left anterior descending coronary artery; conditions: 600 mg P.O. three times a day for a month
Excerpt: A person has a stent placed for 90% lesion of the left anterior descending coronary artery.

severe heart failure = conditions: infusion 1 gram TED for 10 days
Excerpt: A person with acute viral myocarditis develops severe heart failure. […] They are placed on the transplant list.

angina = experiment: Example XXVII: angina treated with nitroglycerine and GS-FDH inhibitor; format: in vivo, human; conditions: 600 mg TIE, concomitantly with nitroglycerine
malignant hypertension = experiment: Example XXVIII: heart failure and malignant hypertension; format: in vivo, human
Excerpt: A person presents with heart failure and malignant hypertension.

wheezing = conditions: intravenous infusion 50 mg/kg Q.6 hours; person
atherosclerosis = conditions: 600 mg TID for a week
[2] = tested on: swollen abdomen and elevated LSTs; conditions: infusion 200 milligrams per kilogram every 6 hours for two weeks
viral pneumonia = conditions: inhaled, 3 mM/3 cc normal saline four times a day
Description: A person status post lung transplant is admitted to the hospital with viral pneumonia.

pinworm = conditions: 1 gram daily for three days
squamous cell cancer = conditions: intravenously 200 milligrams per kilogram four times a day; stage 3B before
[3] = tested on: benign prostatic hypertrophy; conditions: 600 mg three times a day; over three months
[4] = GSNO decomposition in reaction buffer, no lysate (Saville assay); format: biochemical; conditions: 200 μM GSNO, 37° C., 5 minutes
Description: (§1) After precipitation of the reaction mixtures with trichloroacetic acid (8.3% final concentration), the supernatants were diluted threefold in the buffer and nitrosothiol levels in the reaction mixture were measured by the Saville assay as described in Stamler, J. S., Science 276, 2034 (1997). Data are the mean of two independent experiments.

human HeLa cells = experiment: GSNO metabolizing activity of HeLa cell lysate (Saville assay); format: biochemical; conditions: HeLa lysate 4 μg/ml, 200 μM GSNO, 37° C., 5 minutes
Description: as §1, with “The cells were from cell lines obtained from the ATCC. Cells were homogenized by sonication in a solution containing 20 mM Tris-HCl (pH 8.0), 0.5 mM EDTA, 0.1% NP-40 and 1 mM phenylmethylsulfonyl fluoride (PMSF). […] After” for “After”

[5] = tested on: human epithelial A549 cells; experiment: GSNO metabolizing activity of A549 cell lysate (Saville assay); format: biochemical; conditions: A549 lysate 4 μg/ml, 200 μM GSNO, 37° C., 5 minutes
Description: as §1, with “The cells were from cell lines obtained from the ATCC. Cells were homogenized by sonication in a solution containing 20 mM Tris-HCl (pH 8.0), 0.5 mM EDTA, 0.1% NP-40 and 1 mM phenylmethylsulfonyl fluoride (PMSF). […] After” for “After”

[6] = tested on: human monocyte THP-1 cells; experiment: GSNO metabolizing activity of THP-1 cell lysate (Saville assay); format: biochemical; conditions: THP-1 lysate 4 μg/ml, 200 μM GSNO, 37° C., 5 minutes
Description: as §1, with “The cells were from cell lines obtained from the ATCC. Cells were homogenized by sonication in a solution containing 20 mM Tris-HCl (pH 8.0), 0.5 mM EDTA, 0.1% NP-40 and 1 mM phenylmethylsulfonyl fluoride (PMSF). […] After” for “After”

wild-type Y190 cells = experiment: Growth of wild-type yeast treated with GSNO; format: cell-based; conditions: same concentrations as for the mutants
[7] = tested on: Cells from an injured mouse liver; experiment: Survival of cells from cytokine-injured mouse liver treated with NO synthase inhibitor; format: cell-based; conditions: 1 millimolar
Description: (§2) Hepatocytes of wild-type mice and their GS-FDH^−/− littermates were harvested after perfusion of the livers with Liberase (Roche), and purified by repeated differential sedimentation at 50×g, followed by centrifugation over a 30% Percoll solution. […] The cells were then cultured in the presence of recombinant mouse tumor necrosis factor-α (500 units/ml), interferon-gamma (100 units/ml), interleuken-1β (200 units/ml) and lipopolysaccharide (LPS, 10 μg/ml; E. coli 0128:B12; Sigma) for 14 and 40 hours. Nitrosylation levels in hepatocytes were measured as described in Eu, J., et al., Biochemistry 39, 1040-1047 (2000). […] See Liu, L. and Stamler, J. S., Cell Death and Differentiation 6, 937-942 (1999).

[8] = tested on: injured mouse liver cells deficient in GS-FDH; experiment: Survival of GS-FDH-deficient cells from cytokine-injured mouse liver treated with NO synthase inhibitor; format: cell-based; conditions: same cells but deficient in GS-FDH; 1 millimolar
Description: as §2

mouse GS-FDH = target: T1, mouse GS-FDH (Mus musculus, UniProt P28474); experiment: Kinetic analysis of purified GSNO reductase (GS-FDH) from RAW 264.7 cells; format: biochemical; conditions: purified protein
T1 construct: GSNO-metabolizing activity of RAW 264.7 cells was recovered in a single function following anion exchange on a MonoQ column; endogenous in cells; host or cells: RAW 264.7 mouse macrophages (ATCC); purified by ammonium sulfate precipitation, MonoQ and 5' AMP Sepharose 4B
Description: Cells were homogenized by sonication in a solution containing 20 mM Tris-HCl (pH 8.0), 0.5 mM EDTA, 0.1% NP-40 and 1 mM phenylmethylsulfonyl (PMSF).
Further purification over a 5′ AMP Sepharose column yielded a single band of about 43 kDa in a silver-stained SDS-PAGE gel. […] After dialysis against 20 mM Tris-HCl (pH 8.0), the proteins were fractionated on a MonoQ column with increasing concentrations of NaCl. […] SDS-PAGE and Coomassie blue staining gave the single band of about 43 kDa.
The purified protein was digested by trypsin and the resulting peptides were analyzed by mass spectrometry. Peptide mass database search with GPMAW program identified the protein as mouse GS-FDH(SP-P28474) with high scores, matching 8 fragments (42% coverage) to mouse GS-FDH.

impotence = experiment: Example XIII: diabetic patient with impotence; format: in vivo, human
Excerpt: A diabetic with a history of impotence presents to their urologist. […] Their physician adds topical mycophenolic acid (5% paste) with good results.

tumors = conditions: previous use; cited from earlier work
restenosis = experiment: Example X: restenosis post-angioplasty, drug-coated stent; format: in vivo, human; conditions: Nir stent coated with drug, 30% per polymer
Excerpt: The patient was discharged the following day, and did well.

intractable angina = experiment: Example VIII: patient with intractable angina; format: in vivo, human; conditions: 6 grams injected at 20 milligrams per milliliter, daily for seven days; by six weeks
Description: A person with intractable angina is administered ribavirn as 6 grams diluted to a final volume of 300 cc in sterile water and injected at a final concentration of 20 milligrams per milliliter, given daily for seven days.

pulmonary embolism = experiment: Example IX: patient with pulmonary embolism; format: in vivo, human; conditions: inhaled, 6 grams in 300 cc, aerosol, 12 hours/day for three days
Description: A person presents with shortness of breath and hemoptysis. […] Treatment is carried out for 12 hours/day for three days.

chronic psoriasis = experiment: Example XI: patient with chronic psoriasis; format: in vivo, human; conditions: topical paste, 5% with acetylsalicylic acid 2%, 8 hours a day, two weeks
Description: A person with chronic psoriasis presents at the dermatologist. A paste comprised of acetylsalicylic acid, 2%, combined with 5% ribavirin was applied topically for 8 hours a day.

ringworm = experiment: Example XVI: ringworm; format: in vivo, human; conditions: topical ointment 5%, daily for a week

T1 sequence (P28474 whole entry): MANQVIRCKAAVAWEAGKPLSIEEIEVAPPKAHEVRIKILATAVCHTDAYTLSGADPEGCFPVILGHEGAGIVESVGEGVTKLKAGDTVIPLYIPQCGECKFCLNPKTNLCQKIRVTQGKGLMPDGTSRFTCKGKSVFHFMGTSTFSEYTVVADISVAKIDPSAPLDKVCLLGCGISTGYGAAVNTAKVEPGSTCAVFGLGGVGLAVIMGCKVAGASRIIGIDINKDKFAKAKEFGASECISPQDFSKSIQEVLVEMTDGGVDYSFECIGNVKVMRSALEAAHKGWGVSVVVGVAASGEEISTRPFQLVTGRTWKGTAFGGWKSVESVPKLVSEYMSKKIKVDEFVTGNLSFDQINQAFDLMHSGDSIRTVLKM

For `OO` [Compound H2O2, H2O2], the “sensitivity to the toxic effects, mutant versus wild-type Y190 cells” value (sfa1 mutant cells; sfa1 mutant cells) was “no more sensitive”.
In the case of `N[C@H](CCC(=O)N[C@H](CS)C(=O)NCC(=O)O)C(=O)O` [D-glutathione], the “symptoms (difficulty breathing, fever)” value (cystic fibrosis) is reported as “symptoms resolve”, the PO2 (ARDS) is reported as 80 mm/Hg and the “symptoms (chest pain)” value (unstable angina) is reported as “relief of their symptoms”. For the same molecule, the blood pressure (blood pressure) was 140/80, the liver function (liver function) was “gradual normalization of liver function” and the adenopathy (Hodgkins disease) was “resolution of adenopathy”. The “course after stent placement” value [1] was “does well”, the clinical course (severe heart failure) was “stabilized their deteriorating course” and the “symptoms (chest pain)” value (angina) was “total relief of symptoms”. For the same molecule, the “Blood pressure, systolic” value (malignant hypertension; 600 mg TID coadministered with nitroprusside, from 200) was 160, the breathing (wheezing) was “breathing improves” and the response to acetylcholine (atherosclerosis) was “improved response to acetylcholine”. The “swelling and LSTs” value [2] was “swelling and elevated LSTs are reduced”, the “symptoms of cough and shortness of breath” value (viral pneumonia) was “resolution of symptoms of cough and shortness of breath” and the signs and symptoms (pinworm) was “signs and symptom resolve”. The “tumor stage on restaging” value (squamous cell cancer) was 3A and the “symptoms (urinary frequency and hesitancy)” value [3] was “symptoms gradually resolve”.
`N[C@@H](CCC(=O)N[C@@H](CSN=O)C(=O)NCC(=O)O)C(=O)O` [GSNO, S-nitrosoglutathione] gave a GSNO metabolizing activity ([4]; +NADH) of 0.0%, a GSNO metabolizing activity ([4]; +NADPH + GSH + ASA) of 0.7% and a GSNO metabolizing activity ([4]; Buffer only) of 6.2%. The GSNO metabolizing activity (human HeLa cells; +NADH) was 84.2%, the GSNO metabolizing activity (human HeLa cells; +NADPH + GSH + ASA) was 35.4% and the GSNO metabolizing activity (human HeLa cells; Buffer only) was 29.9%. For the same molecule, the GSNO metabolizing activity ([5]; +NADH) was 72.3%, the GSNO metabolizing activity ([5]; +NADPH + GSH + ASA) was 43.9% and the GSNO metabolizing activity ([5]; Buffer only) was 14.7%. It also gave a GSNO metabolizing activity ([6]; +NADH) of 90.8%, a GSNO metabolizing activity ([6]; +NADPH + GSH + ASA) of 22.6% and a GSNO metabolizing activity ([6]; Buffer only) of 18.8%. For the same molecule, the Growth of cells (sfa1 mutant cells; sfa1 mutant cells (G418^r and hygromicin^r clones)) was “markedly inhibited”, the Growth of cells (wild-type Y190 cells) was “little effect” and the “symptoms (difficulty breathing, fever)” value (cystic fibrosis) was “symptoms resolve”.
For `CNC(=N)NCCC[C@H](N)C(=O)O` [N^G-methyl-L-arginine], the “nitric oxide synthase activity left” value [7] was 20%, the cell death ([7]; liver injured by cytokine administration) was “found to die” and the cell death [8] was “died to a lesser extent”.
In the case of `N[C@@H](CCC(=O)N[C@@H](CSCO)C(=O)NCC(=O)O)C(=O)O` [S-hydroxymethylglutathione], the “specific activity for oxidation, as share of the GSNO reducing activity” value (mouse GS-FDH) is reported as “about 6%”.
In the case of `CCCc1nn(C)c2c(=O)[nH]c(-c3cc(S(=O)(=O)N4CCN(C)CC4)ccc3OCC)nc12` [Viagra], the impotence (impotence; Viagra alone) is reported as “no improvement”.
In the case of `NC(=O)c1coc([C@@H]2O[C@H](CO)[C@@H](O)[C@H]2O)c1` [furanfurin, 5-β-D-ribofuranosylfuran-3-carboxamide], the “activity as antitumor agent” value (tumors) is given as “inactive”.
For `COc1c(C)c2c(c(O)c1C/C=C(\C)CCC(=O)O)C(=O)OC2` [mycophenolic acid], the “outcome of stent deployment” value (restenosis) was “successful results” and the impotence (impotence; topical 5% paste added to Viagra) was “good results”.
For `NC(=O)c1ncn([C@@H]2O[C@H](CO)[C@@H](O)[C@H]2O)n1` [ribavirin], the angina (intractable angina) was “angina had improved”, the “symptoms (shortness of breath, hemoptysis)” value (pulmonary embolism) was “improvement in symptoms” and the psoriatic lesion (chronic psoriasis) was “psoriatic lesion had resolved”. For the same molecule, the skin lesion (ringworm) was “skin lesion resolve” and the “activity as antitumor agent” value (tumors) was “inactive”.
With nitroprusside the “Blood pressure, systolic” value (malignant hypertension; nitroprusside alone, 1.0 μg/kg/min IV infusion for 10 minutes, from 240) was 200.
